According to patent US20170233637A1, “METHODS FOR INHIBITING METAL CORROSION” (OHIO UNIVERSITY, priority 2014, published 2017):
Converted amounts (≈) assume the structure as drawn. “And” between values parts separate entries of the source, which are not always exact repeats. Equal values may be shown once. Read-outs that look alike come from different tables or passages of the source.

What was measured:
[1] = VCI screening in bulk solution (BLC rate by linear polarization resistance, OCP, solution pH); conditions: for inhibition properties in the tested water phase (VCI screening in bulk solution): 400 ppmv, 1 wt % NaCl
Protocol: Other measurements of the effectiveness of the VCI composition to inhibit corrosion may be derived from Open Circuit Potential (OCP) and Linear Polarization Resistance (Rp) experiments. In the volatile thiol screening test, a potentiostat was used to measure the Rp and the OCP of the ferrous metal sample. Corrosion rate in the water phase (BLC rate) is proportional to the corrosion current density (icorr), which was then calculated by using a B constant value of 0.026 V/decade (icorr=B/Rp/S in which S is surface area of the sample).
A three electrode system was used in which an X65 rotating cylinder electrode (1000 RPM) was the working electrode 12, a Pt wire was used as counter electrode 14, and Ag/AgCl as the reference electrode 16. A pH probe 18 was used to measure the pH of the solution before and after adding the VCI candidates. The experiments were performed at 25° C. and 1 bar total pressure (pCO2=0.96 bar).
In the VCI screening test, a potentiostat was used to measure the polarization resistance (Rp) of the X65 sample. Corrosion rate in the water phase (BLC rate) is proportional to the corrosion current density (icorr) which was then calculated by using a B constant value of 0.026 V/decade (icorr=B/Rp/S in which S is surface area of the sample).
A baseline test was performed in the absence of the VCI candidate compound. […] Dibutyl sulfide was used to compare the sulfide functional group versus the thiol functional group.
For the VCI screening tests, a 1 wt % NaCl solution was prepared and purged with CO2 for 2 hours at 25° C. before injecting the VCI candidate. […] After that the Open Circuit Potential (OCP) and Linear Polarization Resistance (LPR) were measured every 10 minutes during an exposure time of 3-4 hours. The pH of the solution was measured before and after adding the VCI candidate. Electrolyte resistance (ER) was measured by Electrochemical Impedance Spectroscopy (EIS).

[2] = Efficacy test of VCI candidates for top of the line corrosion (weight loss, ASTM G1; surface analysis); conditions: for TLC rate / TLC rate (weight loss): uninhibited 1.06 mm/y; for surface of the X65 TLC specimen: 100 and 400 ppmv in the bulk, after 2 days; for TLC rate (weight loss): 2 days
Protocol: The temperatures of the bottom solution and gas phases were controlled by a heater, while temperature of the specimen at the top was controlled by cooling water. Through coil 20, a condenser 22 was used to prevent water and VCI vapor loss.
In the VCI efficacy test, corrosion rate of the specimen at the top (TLC rate) was measured by weight loss following the ASTM G1 standard. Sample surface was characterized by Scanning Electron Microscopy (SEM)/Energy Dispersive X-ray Spectroscopy (EDS).
1-hexanethiol, 1-decanethiol and 1-dodecanethiol were chosen based on the results in the VCI screening test, data from which will be shown below. In addition, the effect of acetic acid and MEG on the inhibition performance of the best VCI candidate was also taken into account.
For the efficacy tests of VCI candidates for TLC, 1 wt % NaCl was also prepared and purged with CO2 for 2 hours. In order to have a gas temperature of 65° C., the bottom solution was heated to 77° C. After that the selected concentration of the VCI candidates (Table 3) was added into the bulk solution. A weight loss specimen 24, after being ground (with up to 600 grit abrasive paper), was flush-mounted at the top of the experimental setup, controlling its temperature at 32° C. using cooling water. The weight loss sample and ER probe were added 0.1 hour after addition of the VCI candidate. The weight loss samples were withdrawn after 48 hours for surface analysis and weight loss measurement.
FIG. 15 indicates the conditions for the TLC tests. The temperatures at the bottom, in the vapor phase, and at the top were 77° C., 65° C., and 32° C. respectively. The experiment was performed in the CO2 environment (total pressure=1 atm).

[3] = cited from earlier work; for Solubility: at 77° C.; for Water solubility: temperature not given
[4] = cited from earlier work; for Pvapor (vapor pressure): at 25° C.; for Calculated vapor pressure: at 200° C., Yaws and Yang 1989
[5] = Solubility in water of VCI candidates; conditions: at 25° C.; converted to ppm by volume using density value
[6] = carbon dioxide saturated environment; cited from earlier work
[7] = 400 ppmv VCI added before electrode insertion, CO2 saturated 1 wt % NaCl, 25° C., baseline 2.3 mm/y
[8] = at 25° C., data from www.lookchem.com

SMILES | inhibition properties in the tested water phase (VCI screening in bulk solution) [1] | Solubility limit [3, 8] | Solubility [3] | Water solubility [3] | Pvapor (vapor pressure) [4] | Calculated vapor pressure [4] | other results
CCCCCCCCCCS [1-decanethiol] | had inhibition properties | 2.14 mg/L (≈ 12.3 µM) | 24.8 ppmV | ~2.14 µg/mL | 0.06 mmHg | – | BLC rate [1, 7]: 0.01 mm/y; BLC rate ([1]; 400 ppmv injected after electrode insertion (X65 pre-corroded almost one hour), decreased from 2.4 mm/y): 0.05 mm/y; TLC rate ([2]; 1 ppmv at the bottom): 0.21 mm/y; TLC rate ([2]; 10 ppmv at the bottom): 0.12 mm/y; surface of the X65 TLC specimen [2]: fully protected; protection of the X65 specimen in the presence of acetic acid ([2]; 100 ppmv VCI with 500 ppmv acetic acid): effective in fully protecting; TLC rate (weight loss) ([2]; 400 ppmV at the bottom): 0.02 mm/y; weight loss for the calculation of corrosion rate ([2]; above the solubility limit (100 ppmv and 400 ppmv)): no measurable weight loss; average vapor phase corrosion rate ([2]; with or without 50 wt. % MEG, 400 ppmV per test matrix): around 0.04 mm/y; Solubility limit ([3]; at 32° C.): 3.63 ppmv
CCCCCCCCCCCCS [1-dodecanethiol] | had inhibition properties | 0.18 mg/L (≈ 0.889 µM) | 3 ppmV | ~0.225 µg/mL | 0.007 mmHg | – | TLC rate (weight loss) ([2]; 400 ppmV at the bottom): 0.02 mm/y; Solubility [5]: 0.22 ppmV
CCCCCCS [1-hexanethiol] | had inhibition properties | 177.1 mg/L (≈ 1500 µM) | 1013.0 ppmV | about 177.1 mg/L | 4.5 mmHg | – | BLC rate [1, 7]: 0.01 mm/y; surface of the X65 TLC specimen [2]: partially protected; TLC rate (weight loss) ([2]; 100 ppmV at the bottom): 0.11 mm/y; TLC rate, times lower than the baseline test ([2]; 100 ppmv and 400 ppmv in the bulk): 10 times; TLC rate (weight loss) ([2]; 400 ppmV at the bottom): 0.13 mm/y; localized corrosion rate ([2]; 400 ppmv in the bulk, profilometry after removing corrosion product, 2 day experiment): 1.46 mm/y; depth of the deepest pit on the surface ([2]; 400 ppmv in the bulk, profilometry, 2 day experiment): about 8 micrometers; Solubility [5]: 212.35 ppmV and 212.4 ppmV
O=C(O)CCCCCCCCCCS [11-MUA, 11-mercaptoundecanoic acid] | – | – | 89 ppmV | about 13.8 mg/L | 3.7 × 10^−5 mmHg | – | TLC rate (weight loss) ([2]; 100 ppmV at the bottom): 0.02 mm/y
OCCCCCCCCCCCS [11-Mercapto-1-undecanol] | – | – | – | about 10.3 mg/L | – | – | –
CCCCCCCCCCCCCCCS [C15] | – | – | – | – | – | 26.5 mmHg | –
CCCCCCCCCCCCCCCCS [C16] | – | – | – | – | – | 16.7 mmHg | –
CCCCCCCCCCCCCCCCCS [C17] | – | – | – | – | – | 10.7 mmHg | –
CCCCCCCCCCCCCCCCCCS [C18] | – | – | – | – | – | 6.79 mmHg | –
CCCCSCCCC [Dibutyl sulfide, reference compound] | did not | 39.4 mg/L (≈ 269 µM) | – | – | – | – | BLC rate [1, 7]: did not significantly change
O=C(O)CS [Thioglycolic acid] | – | – | – | – | – | – | effectiveness at inhibiting corrosion [6]: only partially effective
